This note sets out measurements from paper PMC9169622 (Proceedings of the National Academy of Sciences of the …, 2022).

Format in all cases: cell-based
The target of one experiment is T1, PAQR7 (Homo sapiens, UniProt Q86WK9).
T1 sequence (Q86WK9 1-346): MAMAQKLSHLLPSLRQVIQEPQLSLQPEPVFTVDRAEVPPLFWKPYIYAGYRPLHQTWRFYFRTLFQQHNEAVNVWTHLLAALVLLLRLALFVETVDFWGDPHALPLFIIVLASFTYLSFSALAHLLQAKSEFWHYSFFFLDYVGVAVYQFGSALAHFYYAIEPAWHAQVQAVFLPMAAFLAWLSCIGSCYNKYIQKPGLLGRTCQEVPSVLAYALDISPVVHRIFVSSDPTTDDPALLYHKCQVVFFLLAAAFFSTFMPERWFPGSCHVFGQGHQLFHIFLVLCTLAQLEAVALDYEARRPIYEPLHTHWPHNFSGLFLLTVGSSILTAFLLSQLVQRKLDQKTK
The experiment in a line: GloSensor cAMP inhibition assay in HEK293 cells overexpressing PAQR7. Conditions: similar plasma membrane expression levels.

The target of another experiment is T2, full-length GPR126 (Homo sapiens, UniProt Q86SQ4, R1057Q).
T2 sequence (Q86SQ4 38-1221 R1057Q): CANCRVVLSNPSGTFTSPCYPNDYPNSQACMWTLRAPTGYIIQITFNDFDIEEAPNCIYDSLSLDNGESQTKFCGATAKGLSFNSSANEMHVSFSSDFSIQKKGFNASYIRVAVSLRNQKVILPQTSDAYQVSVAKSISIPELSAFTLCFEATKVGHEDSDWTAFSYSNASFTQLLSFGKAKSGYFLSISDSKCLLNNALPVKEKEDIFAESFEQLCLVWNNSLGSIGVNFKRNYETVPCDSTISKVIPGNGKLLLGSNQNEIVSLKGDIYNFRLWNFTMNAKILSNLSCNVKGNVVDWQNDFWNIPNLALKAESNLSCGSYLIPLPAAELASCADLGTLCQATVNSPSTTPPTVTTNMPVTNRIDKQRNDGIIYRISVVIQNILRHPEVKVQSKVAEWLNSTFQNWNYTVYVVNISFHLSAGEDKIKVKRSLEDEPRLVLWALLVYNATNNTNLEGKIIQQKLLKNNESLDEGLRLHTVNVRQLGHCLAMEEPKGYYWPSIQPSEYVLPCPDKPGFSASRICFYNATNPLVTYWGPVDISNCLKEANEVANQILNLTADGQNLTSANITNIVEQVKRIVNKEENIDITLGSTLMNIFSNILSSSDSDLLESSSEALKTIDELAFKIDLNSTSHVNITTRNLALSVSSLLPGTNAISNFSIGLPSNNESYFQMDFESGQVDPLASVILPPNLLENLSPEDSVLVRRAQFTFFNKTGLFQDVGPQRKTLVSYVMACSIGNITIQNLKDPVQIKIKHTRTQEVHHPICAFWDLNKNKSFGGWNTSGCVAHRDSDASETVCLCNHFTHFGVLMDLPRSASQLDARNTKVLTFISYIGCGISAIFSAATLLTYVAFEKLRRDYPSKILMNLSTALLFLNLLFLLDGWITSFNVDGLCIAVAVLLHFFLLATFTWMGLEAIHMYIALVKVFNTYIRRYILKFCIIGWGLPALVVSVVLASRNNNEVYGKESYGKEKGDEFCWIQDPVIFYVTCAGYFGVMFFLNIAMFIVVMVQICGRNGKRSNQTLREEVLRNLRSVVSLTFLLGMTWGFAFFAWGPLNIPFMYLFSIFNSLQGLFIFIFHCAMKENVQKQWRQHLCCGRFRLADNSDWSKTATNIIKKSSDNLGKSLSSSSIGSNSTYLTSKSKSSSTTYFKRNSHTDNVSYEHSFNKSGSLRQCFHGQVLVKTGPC
Briefly: cell-based.

The target in a further experiment is T3, GPR126-β (Homo sapiens, UniProt Q86SQ4).
T3 sequence (Q86SQ4 841-1221 limits assumed): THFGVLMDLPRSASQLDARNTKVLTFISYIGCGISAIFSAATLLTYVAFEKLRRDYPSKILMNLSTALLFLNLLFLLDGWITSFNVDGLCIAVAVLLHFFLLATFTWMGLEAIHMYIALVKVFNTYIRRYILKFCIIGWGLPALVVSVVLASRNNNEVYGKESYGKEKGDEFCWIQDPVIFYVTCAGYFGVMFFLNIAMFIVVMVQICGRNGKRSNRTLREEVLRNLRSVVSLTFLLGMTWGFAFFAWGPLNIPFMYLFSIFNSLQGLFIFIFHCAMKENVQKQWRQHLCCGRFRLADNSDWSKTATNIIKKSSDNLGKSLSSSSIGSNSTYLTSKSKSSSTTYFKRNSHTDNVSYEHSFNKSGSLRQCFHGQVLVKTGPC
The experiment in a line: GloSensor cAMP inhibition assay, GPR126-β construct.

As to `CC(=O)[C@H]1CC[C@H]2[C@@H]3CCC4=CC(=O)CC[C@]4(C)[C@H]3CC[C@]12C` [progesterone], on PAQR7, the “activation of PAQR7 stronger than GPR126 (potency)” value is reported as about 100 fold and the “efficacy at PAQR7 compared with GPR126” value was “significant lower efficacy”. In addition, the “potency in cAMP inhibition assay with GPR126 R1057Q mutant” value on full-length GPR126 was “decreased the potency”. Further, the “EC50 for GPR126-β lower than that of full-length GPR126” value at GPR126-β is listed as about 10 fold.
